# Data published in PubChem BioAssay AID1963830 (Molecular Pharmacology Branch, DTP, NCI, 2024).
# pIC50: −log10 of the molar value.
# Test system: 922993-354-T-J3-PDC complex spheroid viability
# Assay: Anticancer human tumor 922993-354-T-J3-PDC patient-derived endometrial carcinoma cell line growth inhibition [POLQ]
# Conditions: for pIC50: curve of first compound; for viability, T/C: stronger effect = lower value
# Procedure, shortened: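 Complex spheroid viability model combining PDC tumour cells with endothelial (HUVEC) and MSC stromal cells. Novobiocin, ART-558 or RP6685 were tested singly and in combination with standard and investigational anticancer drugs. Each was titrated in half-log steps from near clinical Cmax, or from 10 microM where Cmax was unknown.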
# [1] = second compound 0.0316 µM, first compound 0.0316 µM
# [2] = second compound 0.0316 µM, first compound 0.1 µM
# [3] = second compound 0.0316 µM, first compound 0.316 µM
# [4] = second compound 0.0316 µM, first compound 1 µM
# [5] = second compound 0.0316 µM, first compound 3.16 µM
# [6] = second compound 0.0316 µM, first compound 10 µM
# [7] = second compound 0.1 µM, first compound 0.0316 µM
# [8] = second compound 0.1 µM, first compound 0.1 µM
# [9] = second compound 0.1 µM, first compound 0.316 µM
# [10] = second compound 0.1 µM, first compound 1 µM
# [11] = second compound 0.1 µM, first compound 3.16 µM
# [12] = second compound 0.1 µM, first compound 10 µM
# [13] = second compound 0.316 µM, first compound 0.0316 µM
# [14] = second compound 0.316 µM, first compound 0.1 µM
# [15] = second compound 0.316 µM, first compound 0.316 µM
# [16] = second compound 0.316 µM, first compound 1 µM
# [17] = second compound 0.316 µM, first compound 3.16 µM
# [18] = second compound 0.316 µM, first compound 10 µM
# [19] = second compound 1 µM, first compound 0.0316 µM
# [20] = second compound 1 µM, first compound 0.1 µM
# [21] = second compound 1 µM, first compound 0.316 µM
# [22] = second compound 1 µM, first compound 1 µM
# [23] = second compound 1 µM, first compound 3.16 µM
# [24] = second compound 1 µM, first compound 10 µM
# [25] = second compound 3.16 µM, first compound 0.0316 µM
# [26] = second compound 3.16 µM, first compound 0.1 µM
# [27] = second compound 3.16 µM, first compound 0.316 µM
# [28] = second compound 3.16 µM, first compound 1 µM
# [29] = second compound 3.16 µM, first compound 3.16 µM
# [30] = second compound 3.16 µM, first compound 10 µM
# [31] = second compound 10 µM, first compound 0.0316 µM
# [32] = second compound 10 µM, first compound 0.1 µM
# [33] = second compound 10 µM, first compound 0.316 µM
# [34] = second compound 10 µM, first compound 1 µM
# [35] = second compound 10 µM, first compound 3.16 µM
# [36] = second compound 10 µM, first compound 10 µM
# 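Further: spheroids exposed to the agents for one week.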
# 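Wherever viability, T/C is given: 100% = DMSO vehicle control wells.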
structure (smiles),measurement,setting,value
Nc1ccn(C2OC(CO)C(O)C2(F)F)c(=O)n1 (centres undefined) + Nc1ccc(C#CCN(C(=O)Cc2ncc(C(F)(F)F)cc2C(F)(F)F)c2ccc(F)cc2)nn1,pIC50,second compound 0.0316 µM,> 7.50
same,pIC50,second compound 0.1 µM,> 7.50
same,pIC50,second compound 0.316 µM,> 7.50
same,pIC50,second compound 1 µM,> 7.50
same,pIC50,second compound 3.16 µM,> 7.50
same,pIC50,second compound 10 µM,> 7.50
same,"viability, T/C",[1],25.5%
same,"viability, T/C",[2],25%
same,"viability, T/C",[3],20.9%
same,"viability, T/C",[4],22.2%
same,"viability, T/C",[5],22.2%
same,"viability, T/C",[6],17.2%
same,"viability, T/C",[7],25.9%
same,"viability, T/C",[8],25.5%
same,"viability, T/C",[9],18.4%
same,"viability, T/C",[10],21.9%
same,"viability, T/C",[11],21.3%
same,"viability, T/C",[12],19.4%
same,"viability, T/C",[13],24.9%
same,"viability, T/C",[14],24%
same,"viability, T/C",[15],22.1%
same,"viability, T/C",[16],20.1%
same,"viability, T/C",[17],22.4%
same,"viability, T/C",[18],20.5%
same,"viability, T/C",[19],23.1%
same,"viability, T/C",[20],19.1%
same,"viability, T/C",[21],22.7%
same,"viability, T/C",[22],21.8%
same,"viability, T/C",[23],21.3%
same,"viability, T/C",[24],23.3%
same,"viability, T/C",[25],23.4%
same,"viability, T/C",[26],18.7%
same,"viability, T/C",[27],19.1%
same,"viability, T/C",[28],20.4%
same,"viability, T/C",[29],21.1%
same,"viability, T/C",[30],20.8%
same,"viability, T/C",[31],23.2%
same,"viability, T/C",[32],18.9%
same,"viability, T/C",[33],21.9%
same,"viability, T/C",[34],18.4%
same,"viability, T/C",[35],20.1%
same,"viability, T/C",[36],17.5%
CC1COCCN1c1cc(-c2ccnn2C)c2ccnc(-c3ccn[nH]3)c2n1 (centres undefined) + Nc1ccc(C#CCN(C(=O)Cc2ncc(C(F)(F)F)cc2C(F)(F)F)c2ccc(F)cc2)nn1,pIC50,second compound 0.0316 µM,6.17
same,pIC50,second compound 0.1 µM,6.19
same,pIC50,second compound 0.316 µM,6.14
same,pIC50,second compound 1 µM,6.14
same,pIC50,second compound 3.16 µM,6.23
same,pIC50,second compound 10 µM,6.35
same,"viability, T/C",[1],107%
same,"viability, T/C",[2],102%
same,"viability, T/C",[3],72.5%
same,"viability, T/C",[4],38.3%
same,"viability, T/C",[5],21%
same,"viability, T/C",[6],13.9%
same,"viability, T/C",[7],109%
same,"viability, T/C",[8],95.5%
same,"viability, T/C",[9],70.7%
same,"viability, T/C",[10],40%
same,"viability, T/C",[11],14.2%
same,"viability, T/C",[12],14.5%
same,"viability, T/C",[13],104%
same,"viability, T/C",[14],93.1%
same,"viability, T/C",[15],72%
same,"viability, T/C",[16],42.1%
same,"viability, T/C",[17],18.9%
same,"viability, T/C",[18],13.8%
same,"viability, T/C",[19],102%
same,"viability, T/C",[20],92.1%
same,"viability, T/C",[21],78.2%
same,"viability, T/C",[22],39.2%
same,"viability, T/C",[23],16.8%
same,"viability, T/C",[24],10.1%
same,"viability, T/C",[25],101%
same,"viability, T/C",[26],89.5%
same,"viability, T/C",[27],69.2%
same,"viability, T/C",[28],33.8%
same,"viability, T/C",[29],19.3%
same,"viability, T/C",[30],11.5%
same,"viability, T/C",[31],99.1%
same,"viability, T/C",[32],80.2%
same,"viability, T/C",[33],64.7%
same,"viability, T/C",[34],23.1%
same,"viability, T/C",[35],17.5%
same,"viability, T/C",[36],13.2%
